This note sets out measurements from PubChem BioAssay (NCI).

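Step 1: Grow cells in 96-well plates. Step 2: Expose to compound for 48 hours at 5 concentrations. Step 3: Interpolate endpoints linearly; if unreached, use highest concentration. Here, GI50 denotes the concentration required for 50% inhibition of growth. TGI marks complete inhibition of growth.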 Some results are limits rather than exact numbers.

Some test systems named below: HS 578T breast; NCI-H226 lung; NCI-H522 lung; NCI/ADR-RES ovarian; SF-295 CNS; SK-MEL-28 melanoma; SK-OV-3 ovarian; SN12C renal; SR leukemia; UO-31 renal.
Holding throughout (test): DTP human tumour cell line panel, 48 h

The GI50 is the concentration that inhibits growth by half. The TGI is the concentration giving total growth inhibition. Higher therefore signals lower sensitivity of the cells. `C=C1[C@@H](O)C[C@H]2C(C)(C)C[C@H](Cl)C[C@]2(C)[C@H]1C[C@H](O)[C@H]1CC(=O)NC1=O`: the GI50 in the assay with HS 578T breast is 0.0192 µM; in the assay on NCI-H226 lung it was 0.0218 µM; with NCI-H522 lung it was below 0.01 µM; with NCI/ADR-RES ovarian it was below 0.0447 µM; with SF-295 CNS, below 0.0123 µM; in the assay with SK-MEL-28 melanoma, 0.0161 µM. In addition, the GI50 in the assay with SK-OV-3 ovarian was 0.0135 µM; in the assay on SN12C renal, below 0.01 µM; in the assay on SR leukemia, 0.0142 µM; with UO-31 renal, 0.0185 µM. Also, the TGI in the assay on HS 578T breast was found to be 0.274 µM; with NCI-H226 lung, 0.19 µM; with NCI-H522 lung, 0.0293 µM; with NCI/ADR-RES ovarian, 0.508 µM; with SF-295 CNS it was 0.0748 µM; in the assay on SK-MEL-28 melanoma, 0.127 µM. Besides, the TGI was determined as 0.157 µM in the assay with SK-OV-3 ovarian, 0.108 µM with SN12C renal and 0.212 µM with UO-31 renal.

For `OCc1ncc(-c2ccccc2)s1`, the GI50 with HS 578T breast, with NCI-H226 lung, in the assay on NCI-H522 lung, in the assay on NCI/ADR-RES ovarian, with SF-295 CNS and in the assay on SK-MEL-28 melanoma was above 100 µM throughout. Moreover, the GI50 with SK-OV-3 ovarian, in the assay on SN12C renal, in the assay on SR leukemia and with UO-31 renal was above 100 µM throughout. Besides, the TGI in the assay on HS 578T breast, in the assay with NCI-H226 lung, in the assay on NCI-H522 lung, in the assay with NCI/ADR-RES ovarian, in the assay on SF-295 CNS and in the assay with SK-MEL-28 melanoma was above 100 µM each time. Moreover, the TGI with SK-OV-3 ovarian, in the assay on SN12C renal, with SR leukemia and in the assay with UO-31 renal was above 100 µM throughout.

On to `COc1cc2c(c(OC)c1OC)C(=O)c1c-2n(CCCN=[N+]=[N-])c(=O)c2cc([N+](=O)[O-])ccc12`, for which the GI50 in the assay on HS 578T breast was 25.3 µM; with NCI-H226 lung, above 100 µM; with NCI-H522 lung it was 16.9 µM; in the assay on NCI/ADR-RES ovarian, 53 µM; with SF-295 CNS, 71.2 µM; in the assay on SK-MEL-28 melanoma, above 100 µM. In addition, the GI50 with SK-OV-3 ovarian was 62.7 µM; in the assay on SN12C renal, above 100 µM; with SR leukemia, 16.3 µM; in the assay with UO-31 renal, 69.7 µM. The TGI in the assay on HS 578T breast is above 100 µM; in the assay with NCI-H226 lung, above 100 µM; in the assay with NCI-H522 lung, 79.3 µM; in the assay with NCI/ADR-RES ovarian, above 100 µM; with SF-295 CNS, above 100 µM; in the assay on SK-MEL-28 melanoma it was above 100 µM. Moreover, the TGI in the assay with SK-OV-3 ovarian is above 100 µM; in the assay on SN12C renal, above 100 µM; in the assay on SR leukemia, 41.9 µM; in the assay with UO-31 renal, above 100 µM.

Turning to `CCOC(=O)Nc1ccc(C(=O)/C=C/c2ccccc2)cc1`, the GI50 in the assay on HS 578T breast is 30.9 µM; with NCI-H226 lung, 19.8 µM; in the assay with NCI-H522 lung, 20.9 µM; with NCI/ADR-RES ovarian, 24.2 µM; in the assay with SF-295 CNS, 41.7 µM; in the assay on SK-MEL-28 melanoma it was 59 µM. The GI50 was 26.3 µM in the assay on SK-OV-3 ovarian, 24.4 µM with SN12C renal, 3.68 µM in the assay with SR leukemia and 26.9 µM in the assay on UO-31 renal. Moreover, the TGI in the assay with HS 578T breast is 86 µM; with NCI-H226 lung, 68.6 µM; in the assay on NCI-H522 lung it was 79.8 µM; in the assay on NCI/ADR-RES ovarian it was 65.8 µM; in the assay on SF-295 CNS, above 100 µM; with SK-MEL-28 melanoma it was above 100 µM. Further, the TGI was 77.5 µM in the assay with SK-OV-3 ovarian, above 100 µM in the assay with SN12C renal, above 100 µM in the assay with SR leukemia and above 100 µM in the assay on UO-31 renal.

In the case of `O=C1C(CO)=C[C@@H](O)[C@H]2O[C@@H]12`, the TGI in the assay with HS 578T breast, in the assay on NCI-H226 lung, in the assay on NCI-H522 lung, in the assay on NCI/ADR-RES ovarian, in the assay with SF-295 CNS and with SK-MEL-28 melanoma was above 100 µM in each case. For the same compound, the TGI is above 100 µM in the assay on SK-OV-3 ovarian, 36.3 µM in the assay with SN12C renal, above 100 µM with SR leukemia and above 100 µM in the assay on UO-31 renal.

Regarding `C[n+]1cc2cc3c(cc2c2ccccc21)OCO3`, the GI50 in the assay on HS 578T breast was 2 µM; in the assay with NCI-H226 lung, 2.4 µM; in the assay with NCI-H522 lung, 2.17 µM; in the assay with NCI/ADR-RES ovarian, above 100 µM; in the assay with SF-295 CNS, 3.17 µM; in the assay on SK-MEL-28 melanoma, 3.49 µM. Besides, the GI50 in the assay on SK-OV-3 ovarian was 7.96 µM; in the assay on SN12C renal, 2.31 µM; in the assay on SR leukemia, 3.78 µM; in the assay on UO-31 renal, 27.8 µM. Moreover, the TGI in the assay on HS 578T breast is 7.71 µM; in the assay on NCI-H226 lung it was 32.2 µM; with NCI-H522 lung it was 6.23 µM; with NCI/ADR-RES ovarian, above 100 µM; in the assay with SF-295 CNS, 30.3 µM; with SK-MEL-28 melanoma it was 14.3 µM. The TGI with SK-OV-3 ovarian was above 100 µM; with SN12C renal, 11.1 µM; with SR leukemia, above 100 µM; in the assay with UO-31 renal, above 100 µM.

With `c1ccc2c(-c3cnn4cc(-c5ccc(N6CCNCC6)cc5)cnc34)ccnc2c1`, the GI50 was 1.25 µM with HS 578T breast; 1.65 µM in the assay on NCI-H226 lung; 1.5 µM with NCI-H522 lung; 1.72 µM in the assay with NCI/ADR-RES ovarian; 1.13 µM in the assay with SF-295 CNS; 0.182 µM with SK-MEL-28 melanoma. Also, the GI50 was 1.38 µM in the assay on SK-OV-3 ovarian, 1.22 µM with SN12C renal, 0.153 µM in the assay on SR leukemia and 1.19 µM in the assay on UO-31 renal. The TGI in the assay on HS 578T breast was found to be 2.93 µM; in the assay with NCI-H226 lung it was 3.59 µM; with NCI-H522 lung, 2.9 µM; in the assay with NCI/ADR-RES ovarian, 3.42 µM; in the assay with SF-295 CNS it was 2.48 µM; in the assay with SK-MEL-28 melanoma, 0.35 µM. The TGI was found to be 2.71 µM in the assay on SK-OV-3 ovarian, 2.62 µM in the assay with SN12C renal, 0.562 µM with SR leukemia and 2.43 µM with UO-31 renal.
